Patent publication US20130217664A1, “NOVEL COMPOUNDS USEFUL FOR THE TREATMENT OF DEGENERATIVE AND INFLAMMATORY DISEASES” (priority 2012, published 2013)

Columns and labels:
[1] = target: T1, human TYK2 (Homo sapiens, UniProt P29597); assay: TYK2 inhibition assay; assay type: biochemical; conditions: recombinant human TYK2 catalytic domain, polyGT substrate
T1 construct: catalytic domain (amino acids 871-1187; catalog number 08-147); purchased Carna Biosciences 08-147
T1 sequence (P29597 871-1187): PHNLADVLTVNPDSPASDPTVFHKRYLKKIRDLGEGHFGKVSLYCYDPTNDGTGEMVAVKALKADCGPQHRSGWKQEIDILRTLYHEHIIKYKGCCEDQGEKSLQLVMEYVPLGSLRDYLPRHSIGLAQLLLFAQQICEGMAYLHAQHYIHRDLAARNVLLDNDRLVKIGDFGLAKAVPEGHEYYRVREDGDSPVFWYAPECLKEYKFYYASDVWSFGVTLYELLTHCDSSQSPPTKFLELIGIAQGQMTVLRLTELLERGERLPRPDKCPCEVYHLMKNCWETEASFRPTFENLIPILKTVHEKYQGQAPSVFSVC
Procedure, shortened: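 Radiometric kinase reaction run 90 min at 30 °C, stopped with phosphoric acid, washed and scintillation-counted.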

[2] = system: pSTAT1(2)-luciferase reporter in HeLa cells triggered with human OSM; assay: JAK-STAT signalling assay; assay type: cell-based; conditions: Homo sapiens, HeLa, HeLa cells, pSTAT1(2)-luciferase reporter, human OSM 33 ng/mL; read-out: JAK-STAT IC50
Protocol: JAK-STAT Signalling Assay
HeLa cells were maintained in Dulbecco's Modified Eagle's Medium (DMEM) containing 10% heat inactivated fetal calf serum, 100 U/mL penicillin and 100 μg/mL streptomycin. HeLa cells were used at 70% confluence for transfection. 20,000 cells in 87 μL cell culture medium were transiently transfected with 40 ng pSTAT1(2)-luciferase reporter (Panomics), 8 ng of LacZ reporter as internal control reporter and 52 ng of pBSK using 0.32 μL Jet-PEI (Polyplus) as transfection reagent per well in 96-well plate format. After overnight incubation at 37° C., 5% CO2, transfection medium was removed. 81 μL of DMEM+1.5% heat inactivated fetal calf serum was added. 9 μL compound at 10× concentration was added for 60 min and then 10 μL of human OSM (Peprotech) at 33 ng/mL final concentration.
After overnight incubation at 37° C., 5% CO2 cells were lysed by adding 100 μL lysis buffer/well (PBS, 0.9 mM CaCl2, 0.5 mM MgCl2, 10% Trehalose, 0.05% Tergitol NP9, 0.3% BSA).
40 μL of cell lysate was used to read β-galactosidase activity by adding 180 μL β-Gal solution (30 μL ONPG 4 mg/mL+150 μL β-Galactosidase buffer (0.06 M Na2HPO4, 0.04 M NaH2PO4, 1 mM MgCl2)) for 20 min.
Luciferase activity was measured using 40 μL cell lysate plus 40 μL of Steadylite as described by the manufacturer (Perkin Elmer), on the Envision (Perkin Elmer).
The positive and negative controls were used to calculate z′ and ‘percent inhibition’ (PIN) values.
Percentage inhibition=((fluorescence determined in the presence of vehicle−fluorescence determined for sample with test compound present)divided by(fluorescence determined in the presence of vehicle−fluorescence determined for sample without trigger))*100.
PIN values were plotted for compounds tested in dose-response and EC50 values were derived.

[3] = target: T2, human JAK1 (Homo sapiens, UniProt P23458); assay: JAK1 inhibition assay (polyGT substrate / Ulight-JAK1 peptide); assay type: biochemical; conditions: recombinant human JAK1 catalytic domain; polyGT or Ulight-JAK1 peptide assay
T2 construct: catalytic domain, amino acids 866-1154; catalog number PV4774; purchased Invitrogen PV4774
Procedure, shortened: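 Two formats. PolyGT radiometric: 45 min at 30 °C, stopped with phosphoric acid, counted as cpm. Ulight-JAK1 peptide: 60 min at room temperature, stopped with Eu-anti-phosphotyrosine/EDTA, read as RFU. Percent inhibition normalised to vehicle and 10 μM staurosporine.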

[4] = target: T3, human JAK3 (Homo sapiens, UniProt P52333); assay: JAK3 inhibition assay; assay type: biochemical; conditions: recombinant human JAK3 catalytic domain; polyGT substrate
T3 construct: catalytic domain (amino acids 781-1124; catalog number PV3855); purchased Invitrogen PV3855
Procedure, shortened: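 Radiometric kinase assay: 0.5 ng JAK3 with 2.5 μg polyGT in Tris pH 7.5/MgCl2 buffer, 1 μM ATP plus 0.25 μCi 33P-γ-ATP, 1% DMSO, 45 min at 30 °C, stopped with phosphoric acid.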

[5] = target: T4, human JAK2 (Homo sapiens, UniProt O60674); assay: JAK2 inhibition assay (polyGT substrate / Ulight-JAK1 peptide); assay type: biochemical; conditions: recombinant human JAK2 catalytic domain; polyGT or Ulight-JAK1 peptide assay
T4 construct: catalytic domain (amino acids 808-1132; catalog number PV4210); GST; purchased Invitrogen PV4210
Procedure, shortened: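 Radiometric: 0.025 mU JAK2 with 2.5 μg polyGT, 1 μM ATP plus ^33P-ATP in MOPS pH 7.5 buffer, 1% DMSO, 90 min at 30° C.; filter counting. Alternative TR-FRET format with Ulight-JAK1 peptide, 60 min at room temperature, Eu-anti-phosphotyrosine detection.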

T2 sequence (P23458 866-1154): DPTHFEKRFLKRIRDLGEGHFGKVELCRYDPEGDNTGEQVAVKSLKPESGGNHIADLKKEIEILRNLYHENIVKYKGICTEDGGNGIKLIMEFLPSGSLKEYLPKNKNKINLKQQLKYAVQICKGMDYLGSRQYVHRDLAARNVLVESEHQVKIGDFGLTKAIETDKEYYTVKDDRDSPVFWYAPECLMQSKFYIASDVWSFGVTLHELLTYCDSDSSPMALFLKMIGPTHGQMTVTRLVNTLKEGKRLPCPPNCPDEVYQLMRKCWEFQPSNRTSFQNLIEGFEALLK
T3 sequence (P52333 781-1124): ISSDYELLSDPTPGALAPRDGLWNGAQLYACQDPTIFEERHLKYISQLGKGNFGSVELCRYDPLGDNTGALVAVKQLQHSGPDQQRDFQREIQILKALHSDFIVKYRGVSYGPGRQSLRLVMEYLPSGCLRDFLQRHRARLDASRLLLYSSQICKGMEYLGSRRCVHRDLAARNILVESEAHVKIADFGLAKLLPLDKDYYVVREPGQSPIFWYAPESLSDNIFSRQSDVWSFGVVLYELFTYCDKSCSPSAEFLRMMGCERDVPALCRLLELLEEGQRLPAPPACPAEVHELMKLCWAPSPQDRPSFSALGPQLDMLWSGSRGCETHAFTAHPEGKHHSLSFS
T4 sequence (O60674 808-1132): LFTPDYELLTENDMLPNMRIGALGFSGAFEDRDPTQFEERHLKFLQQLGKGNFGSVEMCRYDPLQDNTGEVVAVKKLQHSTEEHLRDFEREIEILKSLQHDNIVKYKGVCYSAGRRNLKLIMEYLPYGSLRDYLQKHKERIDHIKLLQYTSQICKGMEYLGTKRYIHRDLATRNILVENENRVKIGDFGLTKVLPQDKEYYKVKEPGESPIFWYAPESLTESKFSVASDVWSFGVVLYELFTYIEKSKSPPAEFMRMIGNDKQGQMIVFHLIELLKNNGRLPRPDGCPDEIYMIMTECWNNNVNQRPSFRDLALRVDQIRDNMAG

| Compound | IC50 [1] | IC50 [2] | IC50 [3] | IC50 [4] | IC50 [5] |
| --- | --- | --- | --- | --- | --- |
| CCc1cc(-c2cnc(N(C)C)nc2)ccc1N(C)c1cc2c(cn1)ncn2C [Compound 129, N-(4-(2-(dimethylamino)pyrimidin-5-yl)-2-ethylphenyl)-N,1-dimethyl-1H-imidazo[4,5-c]pyridin-6-amine] | 101 to 500 nM | > 1000 nM | 0.01 to 100 nM | > 1000 nM |  |
| CCc1cc(-c2ccc(C)nc2)ccc1N(C)c1cc2c(cn1)ncn2C [Compound 131, N-(2-ethyl-4-(6-methylpyridin-3-yl)phenyl)-N,1-dimethyl-1H-imidazo[4,5-c]pyridin-6-amine] | 101 to 500 nM | 501 to 1000 nM | 0.01 to 100 nM | > 1000 nM |  |
| CCc1cc(-c2ccc(O)nc2)ccc1N(C)c1cc2c(cn1)ncn2C [Compound 132, 5-(3-Ethyl-4-(methyl(1-methyl-1H-imidazo[4,5-c]pyridin-6-yl)amino)phenyl)pyridin-2-ol] | 0.01 to 100 nM | 501 to 1000 nM | 0.01 to 100 nM | 101 to 500 nM |  |
| CCc1cc(CN2CCN(S(C)(=O)=O)CC2)ccc1N(C)c1cc2c(cn1)ncn2C [Compound 136, N-(2-Ethyl-4-((4-(methylsulfonyl)piperazin-1-yl)methyl)phenyl)-N,1-dimethyl-1H-imidazo[4,5-c]pyridin-6-amine] | 0.01 to 100 nM | 501 to 1000 nM | 0.01 to 100 nM | 501 to 1000 nM |  |
| CCc1cc(-c2cnn(Cc3ccccc3)c2)ccc1N(C)c1cc2c(cn1)ncn2C [Compound 139, N-(4-(1-benzyl-1H-pyrazol-4-yl)-2-ethylphenyl)-N,1-dimethyl-1H-imidazo[4,5-c]pyridin-6-amine] | 0.01 to 100 nM | 501 to 1000 nM | 0.01 to 100 nM | 101 to 500 nM |  |
| CCc1cc(-c2cnc(C(C)C)nc2)ccc1N(C)c1cc2c(cn1)ncn2C [Compound 140, N-(2-ethyl-4-(2-isopropylpyrimidin-5-yl)phenyl)-N,1-dimethyl-1H-imidazo[4,5-c]pyridin-6-amine] | 101 to 500 nM | > 1000 nM | 0.01 to 100 nM | > 1000 nM |  |
| CCc1cc(CN2CCN(C)CC2)ccc1N(C)c1cc2c(cn1)ncn2C [Compound 141, N-(2-ethyl-4-((4-methylpiperazin-1-yl)methyl)phenyl)-N,1-dimethyl-1H-imidazo[4,5-c]pyridin-6-amine] | > 1000 nM | > 1000 nM | 101 to 500 nM | > 1000 nM |  |
| CCc1cc(CN2CCOCC2)ccc1N(C)c1cc2c(cn1)ncn2C [Compound 142, N-(2-ethyl-4-(morpholinomethyl)phenyl)-N,1-dimethyl-1H-imidazo[4,5-c]pyridin-6-amine] | 101 to 500 nM | 501 to 1000 nM | 0.01 to 100 nM | > 1000 nM |  |
| CCc1cc(CN2CCS(=O)(=O)CC2)ccc1N(C)c1cc2c(cn1)ncn2C [Compound 143, [4-(1,1-Dioxothiomorpholin-4-ylmethyl)-2-ethyl-phenyl]-methyl-(1-methyl-1H-imidazo[4,5-c]pyridin-6-yl)-amine] | 501 to 1000 nM | > 1000 nM | 0.01 to 100 nM | 501 to 1000 nM |  |
| CCc1cc(-c2noc(CC#N)n2)ccc1N(C)c1cc2c(cn1)ncn2C [Compound 148, 2-(3-(3-ethyl-4-(methyl(1-methyl-1H-imidazo[4,5-c]pyridin-6-yl)amino)phenyl)-1,2,4-oxadiazol-5-yl)acetonitrile] | 0.01 to 100 nM | 501 to 1000 nM | 0.01 to 100 nM | 501 to 1000 nM |  |
| CCc1ccccc1N(CCN1CCOCC1)c1cc2c(cn1)ncn2C [Compound 460, N-(2-ethylphenyl)-1-methyl-N-(2-morpholinoethyl)-1H-imidazo[4,5-c]pyridin-6-amine] | > 1000 nM |  | 101 to 500 nM | > 1000 nM | > 1000 nM |
| CCc1ccccc1N(Cc1ccccn1)c1cc2c(cn1)ncn2C [Compound 461, N-(2-ethylphenyl)-1-methyl-N-(pyridin-2-ylmethyl)-1H-imidazo[4,5-c]pyridin-6-amine] | > 1000 nM |  | > 1000 nM | > 1000 nM | > 1000 nM |

Results, then the molecule that gave them:

| IC50 [1] | IC50 [2] | IC50 [3] | IC50 [4] | IC50 [5] | Compound |
| --- | --- | --- | --- | --- | --- |
| > 1000 nM | > 1000 nM | 0.01 to 100 nM | > 1000 nM |  | CCc1cc(CNC)ccc1N(C)c1cc2c(cn1)ncn2C [Compound 135, N-(2-ethyl-4-((methylamino)methyl)phenyl)-N,1-dimethyl-1H-imidazo[4,5-c]pyridin-6-amine] |
| 0.01 to 100 nM | > 1000 nM | 0.01 to 100 nM | 501 to 1000 nM |  | CCc1cc(-c2cnccn2)ccc1N(C)c1cc2c(cn1)ncn2C [Compound 144, N-(2-ethyl-4-(pyrazin-2-yl)phenyl)-N,1-dimethyl-1H-imidazo[4,5-c]pyridin-6-amine] |
| 0.01 to 100 nM | 501 to 1000 nM | 0.01 to 100 nM | > 1000 nM |  | CCc1cc(-c2noc(C)n2)ccc1N(C)c1cc2c(cn1)ncn2C [Compound 147, N-(2-ethyl-4-(5-methyl-1,2,4-oxadiazol-3-yl)phenyl)-N,1-dimethyl-1H-imidazo[4,5-c]pyridin-6-amine] |
| 0.01 to 100 nM | > 1000 nM | 0.01 to 100 nM | 101 to 500 nM |  | CCc1cc(CNCC#N)ccc1N(C)c1cc2c(cn1)ncn2C [Compound 149, 2-(3-ethyl-4-(methyl(1-methyl-1H-imidazo[4,5-c]pyridin-6-yl)amino)benzylamino) acetonitrile] |
| 0.01 to 100 nM | 1 to 500 nM | 0.01 to 100 nM | 101 to 500 nM |  | CCc1cc(-c2cscn2)ccc1N(C)c1cc2c(cn1)ncn2C [Compound 150, N-(2-ethyl-4-(thiazol-4-yl)phenyl)-N,1-dimethyl-1H-imidazo[4,5-c]pyridin-6-amine] |
|  | > 1000 nM |  |  |  | CCc1cc(-c2nnc(N)s2)ccc1N(C)c1cc2c(cn1)ncn2C [Compound 193, 5-(3-Ethyl-4-(methyl(1-methyl-1H-imidazo[4,5-c]pyridin-6-yl)amino)phenyl)-1,3,4-thiadiazol-2-amine] |
|  | > 1000 nM |  |  |  | CCc1cc(CNC(=O)OC(C)(C)C)ccc1N(C)c1cc2c(cn1)ncn2C [Compound 252, tert-Butyl 3-ethyl-4-(methyl(1-methyl-1H-imidazo[4,5-c]pyridin-6-yl)amino)benzylcarbamate] |
| > 1000 nM |  | 101 to 500 nM | > 1000 nM | > 1000 nM | CCc1ccccc1N(CCN1CCCC1)c1cc2c(cn1)ncn2C [Compound 459, N-(2-ethylphenyl)-1-methyl-N-(2-(pyrrolidin-1-yl)ethyl)-1H-imidazo[4,5-c]pyridin-6-amine] |
| > 1000 nM |  | 501 to 1000 nM | > 1000 nM | > 1000 nM | CCc1ccccc1N(Cc1cccnc1)c1cc2c(cn1)ncn2C [Compound 462, N-(2-ethylphenyl)-1-methyl-N-(pyridin-3-ylmethyl)-1H-imidazo[4,5-c]pyridin-6-amine] |
